Test results from PubChem BioAssay AID1963982 (Molecular Pharmacology Branch, DTP, NCI, 2024).

Test system: 313798-341-R-J2-PDC spheroids, viability
Assay: Anticancer human tumor 313798-341-R-J2-PDC patient-derived cervical squamous cell carcinoma cell line growth inhibition [PI3K]
Conditions: spheroids with HUVEC and MSC; for IC50: curve of first compound; for viability, T/C: stronger effect = lower value; active = viability on the fitted dose curve at most 10% of control; inactive = the rest
How it was run: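 Spheroid viability read-out. Co-cultures contained the tumor line plus HUVEC and human MSCs. Each agent was paired with a PI3K inhibitor (inavolisib, alpelisib, duvelisib, copanlisib) across half-log dilutions starting at clinical Cmax, or at 10 microM when Cmax was unknown.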
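Also: spheroids exposed to compounds for seven days.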
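For viability, T/C in this document: 100% = DMSO vehicle control viability.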

Cn1cnc2c(F)c(Nc3ccc(Br)cc3Cl)c(C(=O)NOCCO)cc21 + CC(Nc1ncnc2nc[nH]c12)c1cc2cccc(Cl)c2c(=O)n1-c1ccccc1
> 3 µM: IC50 (second compound 0.0316 µM) | IC50 (second compound 0.1 µM) | IC50 (second compound 0.316 µM) | IC50 (second compound 1 µM) | IC50 (second compound 3.16 µM) | IC50 (second compound 10 µM)
inactive: viability, T/C (second compound 0.0316 µM, first compound 0.00949 µM) 97.3% | viability, T/C (second compound 0.0316 µM, first compound 0.03 µM) 99% | viability, T/C (second compound 0.0316 µM, first compound 0.0949 µM) 92.1% | viability, T/C (second compound 0.0316 µM, first compound 0.3 µM) 91.4% | viability, T/C (second compound 0.0316 µM, first compound 0.949 µM) 89.2% | viability, T/C (second compound 0.0316 µM, first compound 3 µM) 77.9% | viability, T/C (second compound 0.1 µM, first compound 0.00949 µM) 85.7% | viability, T/C (second compound 0.1 µM, first compound 0.03 µM) 95.7% | viability, T/C (second compound 0.1 µM, first compound 0.0949 µM) 89% | viability, T/C (second compound 0.1 µM, first compound 0.3 µM) 95.2% | viability, T/C (second compound 0.1 µM, first compound 0.949 µM) 80% | viability, T/C (second compound 0.1 µM, first compound 3 µM) 81.3% | viability, T/C (second compound 0.316 µM, first compound 0.00949 µM) 87.2% | viability, T/C (second compound 0.316 µM, first compound 0.03 µM) 93.7% | viability, T/C (second compound 0.316 µM, first compound 0.0949 µM) 87.6% | viability, T/C (second compound 0.316 µM, first compound 0.3 µM) 92.7% | viability, T/C (second compound 0.316 µM, first compound 0.949 µM) 87.1% | viability, T/C (second compound 0.316 µM, first compound 3 µM) 74.6% | viability, T/C (second compound 1 µM, first compound 0.00949 µM) 96.6% | viability, T/C (second compound 1 µM, first compound 0.03 µM) 98.1% | viability, T/C (second compound 1 µM, first compound 0.0949 µM) 90.3% | viability, T/C (second compound 1 µM, first compound 0.3 µM) 86.1% | viability, T/C (second compound 1 µM, first compound 0.949 µM) 90.1% | viability, T/C (second compound 1 µM, first compound 3 µM) 71.5% | viability, T/C (second compound 3.16 µM, first compound 0.00949 µM) 92.4% | viability, T/C (second compound 3.16 µM, first compound 0.03 µM) 87.7% | viability, T/C (second compound 3.16 µM, first compound 0.0949 µM) 94.3% | viability, T/C (second compound 3.16 µM, first compound 0.3 µM) 89% | viability, T/C (second compound 3.16 µM, first compound 0.949 µM) 79.7% | viability, T/C (second compound 3.16 µM, first compound 3 µM) 76.8% | viability, T/C (second compound 10 µM, first compound 0.00949 µM) 75.2% | viability, T/C (second compound 10 µM, first compound 0.03 µM) 81.3% | viability, T/C (second compound 10 µM, first compound 0.0949 µM) 80.8% | viability, T/C (second compound 10 µM, first compound 0.3 µM) 73.8% | viability, T/C (second compound 10 µM, first compound 0.949 µM) 80.5% | viability, T/C (second compound 10 µM, first compound 3 µM) 53.1%
